Measurements as given in article PMC6952396, “Structural basis for itraconazole-mediated NPC1 inhibition” (Nature Communications, 2020).

Experiments:
[1] = test system: NPC1 mutants (W381E, L613E, Y628S, I685S, and Y1225E); test: Cross-linking of P-X to NPC1 binding-site mutants in intact HEK293S cells; type: cell-based, human; conditions: 0.3 μM P-X
From the text: The I-Br binds to a hydrophobic cavity that is generated by the SSD, the MLD and the CTD in the center of NPC1 (Fig. 3d). Residues in the N-terminal loop and C-terminal helices of the MLD and the CTD, as well as TMs 3, 4, 5, and 13 contribute to the cavity that accommodates I-Br (Figs. 3d, 4a, b). The terminal sec-butyl moiety of I-Br inserts into the cavity and is contacted by residues W381, I609, L613, I685, F1087, I1220, and Y1225 (Fig. 4a, b). […] To validate our structural observation, we have generated five NPC1 mutants (W381E, L613E, Y628S, I685S, and Y1225E) located in the binding site and individually transfected the mutant cDNAs into HEK293S cells.
pNPC1 encoding wild-type human NPC1 (amino acids 1–1278) followed sequentially by three tandem copies of the Flag epitope tag ([…]) was constructed into pcDNA3.1. Expression is achieved with the cytomegalovirus (CMV) promoter. […]
For cross-linking of P-X to NPC1 and mutants in intact cells, the mammalian HEK-293S GnTI^- cells (ATCC, CRL-3022) overexpressing NPC1 and mutants were set up in 500 mL of freestyle medium with 2% FCS at a density of 2 × 10^6 cells per ml. […] An aliquot of each sample was subjected to 8% SDS/PAGE, and fluorescent-labeled proteins were visualized by in-gel fluorescence as described above. […]

human NPC1 = test system: T1, human NPC1; conditions: NPC1 reconstituted in lipid nanodiscs; cited from earlier work
T1 construct: Strep-tag; made in house; host or cells: HEK-293S GnTI- cells (baculovirus-mediated transduction)

[2] = test system: NPC1-mediated cholesterol export; conditions: cited from earlier work

SMILES | cross-linking of P-X to NPC1 mutants in cells [1] | cross-linking of P-X to purified NPC1 (human NPC1) | inhibition of cholesterol export from lysosomes [2]
C#CCOc1ccc(C(=O)c2ccc(C(=O)OC(C)C(CC)n3ncn(-c4ccc(N5CCN(c6ccc(OCC7COC(Cn8cncn8)(c8ccc(F)cc8F)O7)cc6)CC5)cc4)c3=O)cc2)cc1 (stereo not drawn) [P-X] | not efficiently cross-linked | cross-linked | 
CCC(C)n1ncn(-c2ccc(N3CCN(c4ccc(OCC5COC(Cn6cncn6)(c6ccc(Cl)cc6Cl)O5)cc4)CC3)cc2)c1=O (stereo not drawn) [Itraconazole mixture, itraconazole] |  |  | inhibit cholesterol export from lysosomes
